In US20240262803A1, “COMPOUNDS, COMPOSITIONS AND METHODS OF TREATING DISORDERS” (Chungdu Anticancer Bioscience Ltd, priority 2021, published 2024):
Read-outs that look alike come from different tables or passages of the source.

Assays:
RPEMYC^H2B-GFP cells [1] = test: Mechanism-informed phenotypic screening assay (mitotic arrest, polyploidy; GE IN-Cell Analyzer 2000); format: cell-based; conditions: 20 nM to 20 μM, 24, 48 or 72 hours, read-out: Mitotic Arrest (≥5%)
RPEMYC^H2B-GFP cells [2] = test: as above; format: cell-based; conditions: 20 nM to 20 μM, 24, 48 or 72 hours, read-out: Min. Effective conc. for polyploidy (≥5%)
Protocol: We have Previously Developed a Mechanism-Informed Phenotypic Screening Assay to identify novel antimitotic agents (Li et al. 2019). Equipped with a prior understanding of the versatile functions of the chromosomal passenger protein (CPP) complex in orchestrating karyokinesis and cytokinesis, the screening assay is to score for phenotypes typically seen when the CPP complex is disabled. Specifically, the parameters for a positive hit are a temporary elevation of mitotic index (MI) at 24 hours of drug treatment and an accumulation of polyploid cells at 48 hours of drug treatment, indicative of mitotic arrest and cytokinetic failure respectively. These parameters exclude compounds that elicit only a prolonged arrest of cells in mitosis, a phenotype typically provoked by spindle toxins. The screening procedure is briefly summarized here. RPEMYC^H2B-GFP cells engineered to express a Histone 2B-EGFP fusion protein were passaged as batches of 96-well plates, 18-24 hours before exposure to the chemical compounds of the present disclosure at concentrations from 20 nM to 20 μM. At 24, 48 or 72 hours after initiation of treatment, cells were analyzed for either an arrest in mitosis or a change in DNA content by GE IN-Cell Analyzer 2000. As set forth in table 2 below, a value of greater than or equal to […] and less than or equal to 1.0 μM is marked e “A”; a value greater than […] and less than or equal to 10.0 μM is marked “B”; a value greater than 10.0 μM and less than or equal to 30.0 μM is marked “C”; and a value greater than 30.0 μM is marked “D.”

| SMILES | minimal effective concentration (RPEMYC^H2B-GFP cells [1]) [µM] | minimal effective concentration (RPEMYC^H2B-GFP cells [2]) [µM] |
| --- | --- | --- |
| COc1cc(Oc2ncccc2-c2ccncc2)cc(O[C@H]2CCOC2)c1 [Compound 94, (S)-2-(3-methoxy-5-((tetrahydrofuran-3-yl)oxy)phenoxy)-3,4′-bipyridine] | 1 | 1 |
| COc1cc(Oc2ncccc2-c2ccnc(C)c2)cc(O[C@H]2CCOC2)c1 [Compound 95, (S)-2-(3-methoxy-5-((tetrahydrofuran-3-yl)oxy)phenoxy)-2′-methyl-3,4′-bipyridine] | 1 | 1 |
| CNC(=O)c1cc(Oc2ncccc2-c2ccnc(C)c2)cc(OC2CCOC2)c1 (stereo not shown) [Compound 96, N-methyl-3-((2′-methyl-[3,4′-bipyridin]-2-yl)oxy)-5-((tetrahydrofuran-3-yl)oxy)benzamide] | 1 | 1 |
| CNC(=O)c1cc(OC)cc(Oc2ncccc2-c2cc(C)ncn2)c1 [Compound 97, 3-methoxy-N-methyl-5-((3-(6-methylpyrimidin-4-yl)pyridin-2-yl)oxy)benzamide] | 1 | 1 |
| COc1cc(Oc2ncccc2-c2ccnc(C)c2)cc(C(=O)NC2CC2)c1 [Compound 98, N-cyclopropyl-3-methoxy-5-((2′-methyl-[3,4′-bipyridin]-2-yl)oxy)benzamide] | 1 | 1 |
| CNC(=O)c1cc(OC)cc(Oc2ncccc2-c2cc(C)nc(C)c2)c1 [Compound 99, 3-((2′,6′-dimethyl-[3,4′-bipyridin]-2-yl)oxy)-5-methoxy-N-methylbenzamide] | 1 | 1 |
| COc1cc(Oc2ncccc2-c2ccncc2)cc(C(=O)NC2CC2)c1 [Compound 100, 3-([3,4′-bipyridin]-2-yloxy)-N-cyclopropyl-5-methoxybenzamide] | 1 | 1 |
| CNC(=O)c1cc(Oc2ncccc2-c2ccncc2)cc(OC2CCOC2)c1 (stereo not shown) [Compound 101, 3-([3,4′-bipyridin]-2-yloxy)-N-methyl-5-((tetrahydrofuran-3-yl)oxy)benzamide] | 1 | 1 |
